Experimental data: PubChem BioAssay (NCI)
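Test compounds were applied to cells in 96-well plates for 48 hours at 5 doses. TGI is the concentration that stops growth completely.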

Key:
Assay in all cases: inhibition of tumour cell growth, NCI panel, 48 h
[1] = tested on: SNB-19 CNS
[2] = tested on: OVCAR-8 ovarian
[3] = tested on: NCI-H522 lung
[4] = tested on: HS 578T breast
[5] = tested on: IGROV1 ovarian
[6] = tested on: DU-145 prostate
[7] = tested on: OVCAR-3 ovarian
[8] = tested on: SF-268 CNS
[9] = tested on: DMS 273 small cell lung
[10] = tested on: DLD-1 colon

## Cc1nc(C)c(N2CCN([N+](=O)[O-])CC2)c(=O)[nH]1
[1]
  TGI: > 100 µM
[2]
  TGI: > 100 µM
[3]
  TGI: > 100 µM
[4]
  TGI: > 100 µM
[5]
  TGI: > 100 µM
[6]
  TGI: > 100 µM
[7]
  TGI: > 100 µM
[8]
  TGI: > 100 µM

## O=C(/C=C/c1ccccc1)Oc1ccc(C(=O)/C=C/c2ccccc2)cc1
[1]
  TGI: 38.5 µM
[2]
  TGI: 16 µM
[3]
  TGI: 23.6 µM
[4]
  TGI: 69.4 µM
[5]
  TGI: 17.9 µM
[6]
  TGI: 14.9 µM
[7]
  TGI: 16 µM
[8]
  TGI: 18.3 µM

## O=C(O)[C@H]1CCCN1CP(=O)(O)CN1CCC[C@@H]1C(=O)O
[1]
  TGI: > 100 µM
[2]
  TGI: > 100 µM
[3]
  TGI: > 100 µM
[4]
  TGI: > 100 µM
[5]
  TGI: > 100 µM
[6]
  TGI: > 100 µM
[7]
  TGI: > 100 µM
[8]
  TGI: > 100 µM

## CC(C)SC(=S)Sc1c(Cl)c(Cl)nc(Cl)c1Cl
[1]
  TGI: 21.1 µM
[2]
  TGI: 10.5 µM
[3]
  TGI: 11.6 µM
[4]
  TGI: 44.7 µM
[5]
  TGI: 20.1 µM
[6]
  TGI: 11.3 µM
[7]
  TGI: 3.52 µM
[8]
  TGI: 32.9 µM

## COc1ccc(CCN(C)C2CCC(C#N)(c3ccc(OC)c(OC)c3)CC2)cc1OC (configuration not stated)
[1]
  TGI: > 100 µM
[2]
  TGI: > 100 µM
[5]
  TGI: > 100 µM
[9]
  TGI: > 100 µM
[10]
  TGI: > 100 µM
[7]
  TGI: > 100 µM
[8]
  TGI: > 100 µM

## On1c(-c2ccccc2)c(-c2ccccc2N2CCCC2)c2ccccc21
[1]
  TGI: > 100 µM
[2]
  TGI: > 100 µM
[3]
  TGI: > 100 µM
[5]
  TGI: > 100 µM
[9]
  TGI: > 100 µM
[10]
  TGI: > 100 µM
[7]
  TGI: > 100 µM
[8]
  TGI: > 100 µM

## N#CC(C#N)=C1SC(=Nc2ccccc2)C(=Nc2ccccc2)N1c1ccccc1
[1]
  TGI: > 100 µM
[2]
  TGI: 65.9 µM
[3]
  TGI: 4.08 µM
[4]
  TGI: > 93 µM
[5]
  TGI: 28.9 µM
[6]
  TGI: > 100 µM
[7]
  TGI: 6.04 µM
[8]
  TGI: > 66.7 µM

## Cc1c2cc[n+](C)c(C)c2cc2c1[nH]c1ccccc12
[1]
  TGI: 7.22 µM
[2]
  TGI: > 93.4 µM
[3]
  TGI: 18.2 µM
[4]
  TGI: 7.54 µM
[5]
  TGI: > 100 µM
[6]
  TGI: > 78 µM
[9]
  TGI: 39.1 µM
[10]
  TGI: > 100 µM
[7]
  TGI: 57.7 µM
[8]
  TGI: 5.6 µM

## CCCCCCCCCCCC[S+](C)C
[1]
  TGI: 20.5 µM
[2]
  TGI: 17.9 µM
[3]
  TGI: 15.6 µM
[5]
  TGI: 6.16 µM
[6]
  TGI: 17.6 µM
[9]
  TGI: 17.2 µM
[10]
  TGI: 25.9 µM
[7]
  TGI: 18.6 µM
[8]
  TGI: 20.2 µM

## C[N+](C)([O-])CCOc1cc2c(c3ccccc13)-c1ccccc1C2=O
[1]
  TGI: > 55.1 µM
[2]
  TGI: > 93.1 µM
[3]
  TGI: 26.5 µM
[5]
  TGI: 99.8 µM
[9]
  TGI: 43.9 µM
[10]
  TGI: > 100 µM
[7]
  TGI: > 52.6 µM
[8]
  TGI: 36.4 µM
